Reference: patent US20240208992A1, “MACROCYCLES AS CFTR MODULATORS” (Idorsia Pharmaceuticals Ltd, priority 2021, published 2024)
pEC50: −log10 of the molar value.

Biological target: human F508del-CFTR (Homo sapiens, UniProt P13569, DEL508-508)
Assay: F508del-CFTR cell surface expression (corrector activity), DiscoveRx ß-galactosidase complementation chemiluminescence assay in recombinant U2OS cell line;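 further: U2OS cells co-expressing ProLink-tagged F508del-CFTR and a membrane-anchored enzyme acceptor, where more surface CFTR restores β-galactosidase activity measured by chemiluminescence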
Settings: U2OS cell line, 16h compound incubation; for Emax: in relation to the Emax of the corrector lumacaftor (=100%), arithmetic mean values; for pEC50: EC50, F508del-CFTR cell surface expression, geomean values

human F508del-CFTR, sequence (P13569 with tags, fused parts or gaps DEL508-508): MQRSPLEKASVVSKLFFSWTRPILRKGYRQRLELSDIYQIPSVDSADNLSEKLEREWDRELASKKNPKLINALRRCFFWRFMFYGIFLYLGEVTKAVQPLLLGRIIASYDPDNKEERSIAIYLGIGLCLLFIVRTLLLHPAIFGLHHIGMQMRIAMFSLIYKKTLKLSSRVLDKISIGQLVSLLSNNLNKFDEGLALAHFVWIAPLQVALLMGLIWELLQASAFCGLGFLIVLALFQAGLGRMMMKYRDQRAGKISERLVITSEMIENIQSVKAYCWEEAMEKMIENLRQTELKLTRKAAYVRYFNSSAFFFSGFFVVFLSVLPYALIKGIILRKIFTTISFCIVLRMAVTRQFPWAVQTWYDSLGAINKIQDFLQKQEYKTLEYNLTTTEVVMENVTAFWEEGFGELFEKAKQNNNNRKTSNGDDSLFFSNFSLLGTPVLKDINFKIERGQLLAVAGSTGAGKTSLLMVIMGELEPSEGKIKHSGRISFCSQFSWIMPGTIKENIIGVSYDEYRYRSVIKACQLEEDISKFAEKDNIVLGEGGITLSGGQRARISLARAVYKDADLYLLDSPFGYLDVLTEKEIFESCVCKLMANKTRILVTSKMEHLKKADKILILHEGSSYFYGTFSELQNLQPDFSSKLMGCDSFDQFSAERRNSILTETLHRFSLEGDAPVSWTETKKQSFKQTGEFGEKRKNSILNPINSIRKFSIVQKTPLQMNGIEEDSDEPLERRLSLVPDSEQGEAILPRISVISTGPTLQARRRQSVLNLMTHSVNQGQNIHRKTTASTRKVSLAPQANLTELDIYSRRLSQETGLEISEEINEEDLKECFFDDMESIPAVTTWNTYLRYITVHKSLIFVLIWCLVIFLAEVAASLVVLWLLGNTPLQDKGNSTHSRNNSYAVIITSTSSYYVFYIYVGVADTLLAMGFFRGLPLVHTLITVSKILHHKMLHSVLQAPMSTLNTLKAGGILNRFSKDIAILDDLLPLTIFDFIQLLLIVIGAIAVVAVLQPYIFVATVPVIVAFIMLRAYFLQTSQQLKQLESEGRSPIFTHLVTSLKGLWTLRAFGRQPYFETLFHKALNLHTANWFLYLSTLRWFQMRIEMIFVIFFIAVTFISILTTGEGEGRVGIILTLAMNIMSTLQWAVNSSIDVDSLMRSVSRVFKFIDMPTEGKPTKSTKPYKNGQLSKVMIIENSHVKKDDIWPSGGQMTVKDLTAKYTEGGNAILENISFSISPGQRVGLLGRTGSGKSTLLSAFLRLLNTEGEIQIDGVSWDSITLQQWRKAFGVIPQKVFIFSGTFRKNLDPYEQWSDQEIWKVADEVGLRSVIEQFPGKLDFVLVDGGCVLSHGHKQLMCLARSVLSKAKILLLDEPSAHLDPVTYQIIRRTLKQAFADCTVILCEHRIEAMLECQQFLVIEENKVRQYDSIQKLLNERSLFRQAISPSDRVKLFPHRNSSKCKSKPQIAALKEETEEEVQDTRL

CN1C(=O)C[C@@H](C(=O)NCCc2ccc3c(c2)OCO3)NC(=O)c2c(ccc3ccccc23)OC[C@@H](Cc2ccccc2)NC(=O)CN(CCC2CCCCC2)C(=O)[C@@H]1CC1CCCC1 (racemic) [Example 290, (3RS,7S,13R)-N-(2-(benzo[d][1,3]dioxol-5-yl)ethyl)-13-benzyl-9-(2-cyclohexylethyl)-7-(cyclopentylmethyl)-6-methyl-1,5,8,11-tetraoxo-1,2,3,4,5,6,7,8,9,10,11,12,13,14-tetradecahydronaphtho[1,2-p][1]oxa[4,7,10,14]tetraazacycloheptadecine-3-carboxamide] gave an Emax (U2OS) of 260%.
CN1C(=O)C[C@@H](C(=O)NCCc2ccc3c(c2)OCO3)NC(=O)c2c(ccc3ccccc23)OC[C@@H](Cc2ccccc2)NC(=O)CN(CCC2CCCCC2)C(=O)[C@@H]1CC1CCCCC1 (racemic) [Example 291, (3RS,7S,13R)-N-(2-(benzo[d][1,3]dioxol-5-yl)ethyl)-13-benzyl-9-(2-cyclohexylethyl)-7-(cyclohexylmethyl)-6-methyl-1,5,8,11-tetraoxo-1,2,3,4,5,6,7,8,9,10,11,12,13,14-tetradecahydronaphtho[1,2-p][1]oxa[4,7,10,14]tetraazacycloheptadecine-3-carboxamide] gave a pEC50 of 6.96 and an Emax (U2OS) of 210%.
For CN1C(=O)C[C@@H](C(=O)NCCc2ccc3c(c2)OCO3)NC(=O)c2c(ccc3ccccc23)OC[C@@H](Cc2ccccc2)NC(=O)CN(CCC2CCCCC2)C(=O)[C@@H]1CC1CCC1 (racemic) [Example 292, (3RS,7S,13R)-N-(2-(benzo[d][1,3]dioxol-5-yl)ethyl)-13-benzyl-7-(cyclobutylmethyl)-9-(2-cyclohexylethyl)-6-methyl-1,5,8,11-tetraoxo-1,2,3,4,5,6,7,8,9,10,11,12,13,14-tetradecahydronaphtho[1,2-p][1]oxa[4,7,10,14]tetraazacycloheptadecine-3-carboxamide], the Emax (U2OS) was 191%.
COc1cccc(CCNC(=O)[C@@H]2CC(=O)N(C)[C@@H](CC3CCCC3)C(=O)N(C[C@@H]3CCCCO3)CC(=O)N[C@H](Cc3ccccc3)COc3ccc4ccccc4c3C(=O)N2)c1 (racemic) [Example 293, (3RS,7S,13R)-13-benzyl-7-(cyclopentylmethyl)-N-(3-methoxyphenethyl)-6-methyl-1,5,8,11-tetraoxo-9-(((S)-tetrahydro-2H-pyran-2-yl)methyl)-1,2,3,4,5,6,7,8,9,10,11,12,13,14-tetradecahydronaphtho[1,2-p][1]oxa[4,7,10,14]tetraazacycloheptadecine-3-carboxamide] gave an Emax of 137%.
COc1cccc(CCNC(=O)[C@@H]2CC(=O)N(C)[C@@H](CC3CCCCC3)C(=O)N(C[C@@H]3CCCCO3)CC(=O)N[C@H](Cc3ccccc3)COc3ccc4ccccc4c3C(=O)N2)c1 (racemic) [Example 294, (3RS,7S,13R)-13-benzyl-7-(cyclohexylmethyl)-N-(3-methoxyphenethyl)-6-methyl-1,5,8,11-tetraoxo-9-(((S)-tetrahydro-2H-pyran-2-yl)methyl)-1,2,3,4,5,6,7,8,9,10,11,12,13,14-tetradecahydronaphtho[1,2-p][1]oxa[4,7,10,14]tetraazacycloheptadecine-3-carboxamide] was tested, and the pEC50 was 6.58 and the Emax (U2OS) was 138%.
COc1cccc(CCNC(=O)[C@@H]2CC(=O)N(C)[C@@H](CC3CCCC3)C(=O)N(C[C@@H]3CCCCO3)CC(=O)N[C@H](Cc3ccccc3)COc3ccc4ccccc4c3C(=O)N2)c1 (racemic) [Example 295, (3RS,7S,13R)-13-benzyl-7-(cyclopentylmethyl)-N-(3-methoxyphenethyl)-6-methyl-1,5,8,11-tetraoxo-9-(((R)-tetrahydro-2H-pyran-2-yl)methyl)-1,2,3,4,5,6,7,8,9,10,11,12,13,14-tetradecahydronaphtho[1,2-p][1]oxa[4,7,10,14]tetraazacycloheptadecine-3-carboxamide] showed an Emax of 174%.
For COc1cccc(CCNC(=O)[C@@H]2CC(=O)N(C)[C@@H](CC3CCCCC3)C(=O)N(C[C@H]3CCCCO3)CC(=O)N[C@H](Cc3ccccc3)COc3ccc4ccccc4c3C(=O)N2)c1 (racemic) [Example 296, (3RS,7S,13R)-13-benzyl-7-(cyclohexylmethyl)-N-(3-methoxyphenethyl)-6-methyl-1,5,8,11-tetraoxo-9-(((R)-tetrahydro-2H-pyran-2-yl)methyl)-1,2,3,4,5,6,7,8,9,10,11,12,13,14-tetradecahydronaphtho[1,2-p][1]oxa[4,7,10,14]tetraazacycloheptadecine-3-carboxamide], the Emax (U2OS) was 144%.
COc1cccc(CCNC(=O)[C@@H]2CC(=O)N(C)[C@@H](CC(C)C)C(=O)N(CC[C@H]3CCCCO3)CC(=O)N[C@H](Cc3ccccc3)COc3ccc4ccccc4c3C(=O)N2)c1 (racemic) [Example 297, (3RS,7S,13R)-13-benzyl-7-isobutyl-N-(3-methoxyphenethyl)-6-methyl-1,5,8,11-tetraoxo-9-(2-((SR)-tetrahydro-2H-pyran-2-yl)ethyl)-1,2,3,4,5,6,7,8,9,10,11,12,13,14-tetradecahydronaphtho[1,2-p][1]oxa[4,7,10,14]tetraazacycloheptadecine-3-carboxamide] showed a pEC50 of 6.71 and an Emax (U2OS) of 225%.
Work on COc1cccc(CCNC(=O)[C@@H]2CC(=O)N(C)[C@@H](CC3CCCC3)C(=O)N(CC[C@H]3CCCCO3)CC(=O)N[C@H](Cc3ccccc3)COc3ccc4ccccc4c3C(=O)N2)c1 (racemic) [Example 298, (3RS,7S,13R)-13-benzyl-7-(cyclopentylmethyl)-N-(3-methoxyphenethyl)-6-methyl-1,5,8,11-tetraoxo-9-(2-((SR)-tetrahydro-2H-pyran-2-yl)ethyl)-1,2,3,4,5,6,7,8,9,10,11,12,13,14-tetradecahydronaphtho[1,2-p][1]oxa[4,7,10,14]tetraazacycloheptadecine-3-carboxamide] yielded a pEC50 of 6.66 and an Emax (U2OS) of 186%.
For COc1cccc(CCNC(=O)[C@@H]2CC(=O)N(C)[C@@H](CC3CCCCC3)C(=O)N(CC[C@H]3CCCCO3)CC(=O)N[C@H](Cc3ccccc3)COc3ccc4ccccc4c3C(=O)N2)c1 (racemic) [Example 299, (3RS,7S,13R)-13-benzyl-7-(cyclohexylmethyl)-N-(3-methoxyphenethyl)-6-methyl-1,5,8,11-tetraoxo-9-(2-((SR)-tetrahydro-2H-pyran-2-yl)ethyl)-1,2,3,4,5,6,7,8,9,10,11,12,13,14-tetradecahydronaphtho[1,2-p][1]oxa[4,7,10,14]tetraazacycloheptadecine-3-carboxamide], the pEC50 was 6.96 and the Emax (U2OS) was 136%.
With COc1cccc(CCNC(=O)[C@@H]2CC(=O)N(C)[C@@H](CC3CCCC3)C(=O)N(CCC3CCCCC3)CC(=O)N[C@H](Cc3ccccc3)COc3ccc4ccccc4c3C(=O)N2)c1 (racemic) [Example 300, (3RS,7S,13R)-13-benzyl-9-(2-cyclohexylethyl)-7-(cyclopentylmethyl)-N-(3-methoxyphenethyl)-6-methyl-1,5,8,11-tetraoxo-1,2,3,4,5,6,7,8,9,10,11,12,13,14-tetradecahydronaphtho[1,2-p][1]oxa[4,7,10,14]tetraazacycloheptadecine-3-carboxamide] the Emax (U2OS) was 210%.
